Test results published in patent publication US20090325920A1, “METHODS FOR THE TREATMENT OF A TRAUMATIC CENTRAL NERVOUS SYSTEM INJURY” (priority 2005, published 2009).

What was measured:
[1] = system: adults with blunt TBI, Glasgow Coma Scale score 4-12; test: Phase II randomized placebo-controlled trial in acute TBI: signals of activity, 30-day outcomes (Example 3); type: in vivo, human; details: for All cause mortality (ITT): intention to treat, n=77
Source text: In addition to monitoring subjects for signs of harm, we hoped to detect signals of activity. […] For this preliminary study, our primary outcome of interest was Glasgow Outcome Scale Extended (GOSE) 30 days post-injury. […] Thirty days following each injury event, we assessed each patient's Glasgow Outcome Score Extended (GOSE) and Disability Rating Scale (DRS). Patients who were severely impaired were classified as “not testable”-a surrogate marker for a poor outcome. Reliability codes were used to record reasons for non-administration of a particular measure, such as physical impairment (e.g., hemiparesis) cognitive impairment (e.g., could not understand instructions), or intoxication. One-year outcomes will be reported at a later date. […] Our secondary aim was to look for signs of drug activity by assessing several measures of outcome. Our a priori primary measure of outcome was the Glasgow Outcome Scale-Extended ([…] et al. (1998) Journal of Neurotrauma 15(8):587-597). […] (1987) Journal of Neurosurgery 67(6):832-840) and 5) the Disability Rating Scale (DRS) (Hall et al. […] Variables determined to be independently associated with all-cause mortality or CNS related-death, such as iGCS (dichotomized into moderate versus severe), injury severity score and Marshall CT score were incorporated in a stepwise logistic regression analyses. Because GCS often fluctuates during the first few hours after injury, additional stepwise logistic regressions were performed using dichotomized GCS 1 day post-injury.

[2] = clinical; details: human, in vivo
Source text: This study was approved by the Institutional Review Board of Emory University, the Drug Safety Monitoring Board (NINDS) and the FDA (IND #58,986). After obtaining informed consent, thirty-six patients meeting the inclusion criteria outlined as follows were studied. […] Inclusion criteria required that each patient be ≧18 years old, have a closed head injury arising from blunt trauma, have a moderate to severe brain injury (Index Glasgow Coma Score (GCS) 4-12) and arrive in the Emergency Department and obtain informed consent (from next-of-kin) in less than 11 hours post injury.
Aliquots of each solution were assayed for final concentration and sterility. […] Each kit contained six vials. […] The placebo kits were also formulated with 95% ethanol. Because of the alcohol concentration, doses of study drug were mixed with Intralipid® immediately prior to infusion. Each infusion dose was administered over 12 hours and repeated every 12 hours for a total of 72 hours. […] The dosing worksheet was also used to calculate the volume of study medication to be diluted in Intralipid® for each of the remaining infusion reservoirs at a standard rate of 10 cc/hr.
Nine (5 ml) samples were obtained at the following times during the infusion: pre-infusion (0), 4, 6, 12, 24, 36, 48, 60, and 72 hours. An additional five samples were obtained following cessation of infusion at: 0.5, 1, 2, 4 and 8 hours. Samples were allowed to clot, and then centrifuged After that, the serum was removed and stored at −70° C. until analyzed.
The primary pharmacokinetic parameter, CL, was estimated as the ratio of the dose to area under the serum concentration-time curve (AUC). AUC's were calculated using the linear trapezoidal rule (Veng-Pedersen (1989) Clin Pharmacokinet, 17(6):424-40). The elimination phase rate constant, ke, was calculated from the serum concentration-time data following the termination of the infusion using iterative non-linear regression (WinNonlin®, Pharsight Corporation, Mountain View, Calif.). Volume of Distribution was estimated as the ratio of CL and ke. Css was estimated as the ratio of Dose and CL. Actual Css was defined as the concentration achieved when the slope of the serum concentration-time curve for three or more consecutive samples was not different from zero.
Predicted Css concentrations were calculated as the ratio of the infusion rate/clearance. Differences between predicted and measured Css were made using a ‘t’ test for repeated measures. A Bland-Altman analysis was conducted to assess the magnitude of any bias associated with this approach (Bland and Altman (1986) Lancet, 1(8476):307-10). Pharmacokinetic parameter comparisons between male and female were accomplished using a ‘t’ test for independent means. A p value of less than 0.05 was considered the minimum level for rejection of the null hypothesis.

[3] = 30 days post injury, treatment received
[4] = Index GCS = 9-12, 30 days post injury

CC(=O)[C@H]1CC[C@H]2[C@@H]3CCC4=CC(=O)CC[C@]4(C)[C@H]3CC[C@]12C [progesterone, pregn-4-ene-3,20-dione]
Dichotomized Glasgow Outcome Score - Extended: Dead to Upper Severe ([1]; 30 days post injury): 70.0% | Dichotomized Glasgow Outcome Score - Extended: good or moderate recovery ([1]; 30 days post injury): 30.0% | Glasgow Outcome Score - Extended: Dead ([1]; 30 days post injury): 14.2% | Glasgow Outcome Score - Extended: Lower Good ([1]; 30 days post injury): 4.3% | Glasgow Outcome Score - Extended: Lower Moderate ([1]; 30 days post injury): 11.4% | Glasgow Outcome Score - Extended: Lower Severe ([1]; 30 days post injury): 40.0% | Glasgow Outcome Score - Extended: Upper Good ([1]; 30 days post injury): 4.3% | Glasgow Outcome Score - Extended: Upper Moderate ([1]; 30 days post injury): 10.0% | Glasgow Outcome Score - Extended: Upper Severe ([1]; 30 days post injury): 8.6% | Glasgow Outcome Score - Extended: Vegetative State ([1]; 30 days post injury): 7.1% | All cause mortality (ITT) ([1]; 30 days post injury): 13% | All cause mortality (ITT) ([1]; 30 days post injury, listed as Progesterone): 13.0% | All cause mortality (TR) [1, 3]: 11.8% | Neurological deaths [1, 3]: 5.3% | Non-neurological deaths [1, 3]: 6.6% | dichotomized GOSE versus placebo ([1]; 30 days post-injury): did not significantly differ between groups | Disability Rating Score: Total DRS, mean ([1]; Index GCS = 4-8, 30 days post injury): 10.7 | Disability Rating Score: Employ, mean [1, 4]: 1.8 | Disability Rating Score: Function, mean [1, 4]: 1.5 | Disability Rating Score: Total DRS, mean [1, 4]: 5 | Duration of Coma, mean ([1]; Initial GCS = 4-8): 10.1 days | Duration of Post-Traumatic Amnesia, mean ([1]; Initial GCS = 4-8): 18.6 days | Duration of Coma, mean ([1]; Initial GCS = 4-8, listed as Progesterone): 10.11 days | Duration of Coma, mean ([1]; Initial GCS = 9-12): 4.1 days | Duration of Post-Traumatic Amnesia, mean ([1]; Initial GCS = 9-12): 10.7 days | trend of mean intracranial pressure levels ([1]; first 4 days post-injury, subjects with monitors in place, not statistically significant): remained stable | Intracranial Pressure, mean ([1]; infusion day 0): 16.0 mm Hg | Intracranial Pressure, mean ([1]; infusion day 1): 17.1 mm Hg | Intracranial Pressure, mean ([1]; infusion day 2): 15.4 mm Hg | Intracranial Pressure, mean ([1]; infusion day 3): 16.0 mm Hg | Intracranial Pressure, mean ([1]; infusion day 4): 17.7 mm Hg | DRS scores versus placebo ([1]; moderately brain-injured patients, 30 days post-injury): significantly better DRS scores | Survived > 30 days ([1]; treatment received): 88.2% | Css actually measured ([2]; both): 337 ± 135 ng/mL | Css predicted by Ro/CL ([2]; both): 332 ± 121 ng/mL | clearance ([2]; both, CL): 28.8 mL/min/kg | half-life ([2]; both, terminal half-life): 1.78 ± 1 h | Css Measured ([2]; female): 316 ng/mL | clearance ([2]; female, CL): 31.3 mL/min/kg | Vd ([2]; female, iv): 1.33 L/kg | half-life ([2]; female, t1/2): 2.03 ± 1.08 h | clearance ([2]; male, CL): 27.7 mL/min/kg | Vd ([2]; male, iv): 1.62 L/kg | clearance ([2]; male, iv): 22.2 mL/min/kg | half-life ([2]; male, t1/2): 1.6 ± 0.95 h
